Source: ChEMBL document CHEMBL4622917, “Structure Elucidation and Absolute Configuration Determination of Nortriterpenoids from Picramnia glazioviana” (J Nat Prod, 2020)
Calls of active or inactive are those of the source. No cut-off for these calls is given here.

How the values were obtained:
MDA-MB-231 [1] = test: Cytotoxicity against human MDA-MB-231 cells assessed as cell viability at 100 uM incubated for 48 hrs by MTT assay relative to control; format: functional; conditions: MDA-MB-231, 48 h, read-out: Activity
SK-BR-3 [2] = test: Cytotoxicity against human SKBR3 cells assessed as cell viability at 100 uM incubated for 48 hrs by MTT assay relative to control; format: functional; conditions: SK-BR-3, 48 h, read-out: Activity
A549 [3] = test: Cytotoxicity against human A549 cells assessed as cell viability at 100 uM incubated for 48 hrs by MTT assay relative to control; format: functional; conditions: A549, 48 h, read-out: Activity
MDA-MB-231 [4] = test: Cytotoxicity against human MDA-MB-231 cells assessed as reduction in cell viability at 25 to 50 uM incubated for 48 hrs by MTT assay relative to control; format: functional, cell-based
MDA-MB-231 [5] = test: Cytotoxicity against human MDA-MB-231 cells incubated for 48 hrs by MTT assay; format: functional, cell-based; conditions: MDA-MB-231, 48 h
SK-BR-3 [6] = test: Cytotoxicity against human SKBR3 cells incubated for 48 hrs by MTT assay; format: functional, cell-based; conditions: SK-BR-3, 48 h
A549 [7] = test: Cytotoxicity against human A549 cells incubated for 48 hrs by MTT assay; format: functional, cell-based; conditions: A549, 48 h
MDA-MB-231 [8] = test: Cytotoxicity against human MDA-MB-231 cells assessed as reduction in cell viability at 50 to 100 uM incubated for 48 hrs by MTT assay relative to control; format: functional, cell-based
A549 [9] = test: Cytotoxicity against human A549 cells assessed as reduction in cell viability at 25 to 100 uM incubated for 48 hrs by MTT assay relative to control; format: functional, cell-based
MDA-MB-231 [10] = test: Cytotoxicity against human MDA-MB-231 cells assessed as reduction in cell viability at 12.5 to 100 uM incubated for 48 hrs by MTT assay relative to control; format: functional, cell-based
MDA-MB-231 [11] = test: Cytotoxicity against human MDA-MB-231 cells assessed as reduction in cell viability at 25 to 100 uM incubated for 48 hrs by MTT assay relative to control; format: functional, cell-based

SMILES | viability at 100 µM (MDA-MB-231 [1]) [%] | viability at 100 µM (SK-BR-3 [2]) [%] | viability at 100 µM (A549 [3]) [%] | Activity (MDA-MB-231 [4]) | IC50 (MDA-MB-231 [5]) [µM] | IC50 (SK-BR-3 [6]) [µM] | IC50 (A549 [7]) [µM] | Activity (MDA-MB-231 [8]) | Activity (A549 [9]) | Activity (MDA-MB-231 [10]) | Activity (MDA-MB-231 [11])
COC(=O)[C@H](C1=C2[C@H]3O[C@H]3[C@@H]3[C@@]45COC(=O)C[C@@H]4OC(C)(C)[C@@H]5C[C@@H](OC(=O)c4ccccc4)[C@@]3(C)[C@]2(C)CCC1=O)C(C)(C)CC(=O)O | > 50 | > 50 | > 50 | Active | > 10 | > 10 | > 10 | – | – | – | –
COC(=O)CC(C)(C)[C@H](C(=O)OC)C1=C2CC[C@@H]3[C@@]45COC(=O)C[C@@H]4OC(C)(C)[C@@H]5CC[C@@]3(C)[C@]2(C)CCC1=O | > 50 | > 50 | > 50 | – | > 10 | > 10 | > 10 | Active | Active | – | –
COC(=O)[C@H](C1=C2C=C[C@@H]3[C@@]45COC(=O)C[C@@H]4OC(C)(C)[C@@H]5C[C@@H](OC(=O)c4ccccc4)[C@@]3(C)[C@]2(C)CCC1=O)C(C)(C)CC(=O)O | > 50 | > 50 | > 50 | – | > 10 | > 10 | > 10 | Active | – | – | –
CC1(C)O[C@H]2CC(=O)OC[C@]23[C@H]2CCC4=C([C@@H]5CCC(=O)O5)C(=O)CC[C@@]4(C)[C@]2(C)[C@H](OC(=O)c2ccccc2)C[C@@H]13 | > 50 | > 50 | > 50 | – | > 10 | > 10 | > 10 | – | – | Active | –
CC1(C)O[C@H]2CC(=O)OC[C@]23[C@H]2CCC4=C([C@H]5CCC(=O)O5)C(=O)CC[C@@]4(C)[C@]2(C)CC[C@@H]13 | > 50 | > 50 | > 50 | – | > 10 | > 10 | > 10 | – | – | – | –
CC1(C)O[C@H]2CC(=O)OC[C@]23[C@H]2CCC4=C([C@H]5CCC(=O)O5)C(=O)CC[C@@]4(C)[C@]2(C)[C@H](OC(=O)c2ccccc2)C[C@@H]13 | > 50 | > 50 | > 50 | – | > 10 | > 10 | > 10 | – | – | – | Active
COC(=O)[C@@H]1C2=C(CC[C@]3(C)C2=CC[C@@H]2[C@@]45COC(=O)C[C@@H]4OC(C)(C)[C@@H]5C[C@@H](O)[C@]23C)OC(=O)CC1(C)C | > 50 | > 50 | > 50 | – | > 10 | > 10 | > 10 | – | – | – | –
COC(=O)CC(C)(C)[C@H](C(=O)OC)C1=C2CC[C@@H]3[C@@]45COC(=O)C[C@@H]4OC(C)(C)[C@@H]5C[C@@H](OC(=O)c4ccccc4)[C@@]3(C)[C@]2(C)CCC1=O | > 50 | > 50 | > 50 | – | > 10 | > 10 | > 10 | – | – | – | –
